The source of these data is ChEMBL document CHEMBL1201862, “PubChem BioAssay data set” (2004).

Activity calls are given as the source filed them.

A word on the IC50: it is the concentration at which inhibition is half-maximal. A word on the EC50: it is the concentration giving half of the maximal effect. By AC50 is commonly meant the midpoint of the concentration-response curve, whichever way the signal moves.

The target in assay [1] is Beta Lactamase (Pseudomonas aeruginosa, UniProt Q932Y6). The assay can be described thus: BLA reporter interference, concentration series – BLA reporter cells, FRET fluorescence, artefact control for NOD2-RIPK2 interaction inhibitor project, dose response (AID 651552). Type of assay: functional, cell-based.
Sequence of Beta Lactamase (Q932Y6 whole entry): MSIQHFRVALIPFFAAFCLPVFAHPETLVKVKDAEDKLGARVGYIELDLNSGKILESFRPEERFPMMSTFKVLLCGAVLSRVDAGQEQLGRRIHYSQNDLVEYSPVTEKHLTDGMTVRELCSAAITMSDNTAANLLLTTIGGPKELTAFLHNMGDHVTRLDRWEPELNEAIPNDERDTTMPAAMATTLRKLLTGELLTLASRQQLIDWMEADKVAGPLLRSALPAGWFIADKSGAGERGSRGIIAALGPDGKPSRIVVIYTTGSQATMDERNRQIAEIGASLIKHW
Assay [2] addresses T1, Orexin/Hypocretin receptor type 1 (Homo sapiens, UniProt O43613).
T1 sequence (O43613 whole entry): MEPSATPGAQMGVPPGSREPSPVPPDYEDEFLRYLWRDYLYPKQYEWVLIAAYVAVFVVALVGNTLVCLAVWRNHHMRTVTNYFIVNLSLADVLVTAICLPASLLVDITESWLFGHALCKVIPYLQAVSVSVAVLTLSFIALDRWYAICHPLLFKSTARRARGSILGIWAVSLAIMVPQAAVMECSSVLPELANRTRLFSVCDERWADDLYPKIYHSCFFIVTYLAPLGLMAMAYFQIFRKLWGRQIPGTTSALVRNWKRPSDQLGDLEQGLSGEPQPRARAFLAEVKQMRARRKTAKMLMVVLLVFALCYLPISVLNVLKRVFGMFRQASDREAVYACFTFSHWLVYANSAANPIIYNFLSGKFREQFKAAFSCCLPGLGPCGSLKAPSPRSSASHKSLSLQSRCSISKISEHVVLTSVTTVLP
Description: Fluorescence-based cell-based high throughput dose response assay for antagonists of the orexin 1 receptor (OX1R; HCRTR1). [Related pubchem assays (depositor defined):AID434989, AID435008, AID463079, AID485270, AID492963, AID492964, AID492965, AID493232, AID504717, AID504718]. Type of assay: functional.

Assay [3] deals with Luciferin 4-monooxygenase (Photinus pyralis, UniProt P08659). The assay can be described thus: inhibition of purified Photinus pyralis luciferase – biochemical, luminescence, dose response (AID 1891).
Sequence of Luciferin 4-monooxygenase (P08659 whole entry): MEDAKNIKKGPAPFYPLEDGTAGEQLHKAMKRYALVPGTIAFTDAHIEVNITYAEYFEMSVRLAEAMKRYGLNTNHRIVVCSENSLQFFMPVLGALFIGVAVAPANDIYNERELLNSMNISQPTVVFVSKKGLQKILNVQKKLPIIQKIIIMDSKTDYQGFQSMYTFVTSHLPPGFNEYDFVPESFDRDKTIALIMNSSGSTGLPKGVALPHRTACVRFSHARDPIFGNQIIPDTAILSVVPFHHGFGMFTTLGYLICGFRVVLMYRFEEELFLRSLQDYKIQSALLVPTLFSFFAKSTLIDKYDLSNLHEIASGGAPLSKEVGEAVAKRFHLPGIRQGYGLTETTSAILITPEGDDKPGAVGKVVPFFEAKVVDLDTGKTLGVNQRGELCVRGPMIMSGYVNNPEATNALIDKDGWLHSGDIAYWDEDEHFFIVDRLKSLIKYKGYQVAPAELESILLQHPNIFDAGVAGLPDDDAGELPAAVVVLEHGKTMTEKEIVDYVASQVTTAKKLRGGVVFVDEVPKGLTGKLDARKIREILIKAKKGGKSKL
Assay [4] is described as follows: Counterscreen for antagonists of the orexin 1 receptor (OX1R; HCRTR1): Fluorescence-based cell-based high throughput dose response assay to identify antagonists of the parental CHO cell line. [Related pubchem assays (depositor defined):AID434989, AID435008, AID463079, AID485270, AID492963, AID492964, AID492965, AID493232, AID504699, AID504701]. The format is functional. (Counterscreens check selectivity or assay interference.)

Assay [5] can be described thus: Luminescence Cell-Based Dose Confirmation HTS to Identify Inhibitors of Platelet Dense Granule Release. [Related pubchem assays: 1663 (Primary HTS), 1678 (Summary of Project)]. The format is functional.
Assay [6] addresses Heat shock protein HSP 90-alpha (Homo sapiens, UniProt P07900). The format is functional, organism-based.
A short description of assay [7]: Fluorescence-based cell-based high throughput dose response assay for inhibitors of the interaction of nucleotide-binding oligomerization domain containing 2 (NOD2) and the receptor-interacting serine-threonine kinase 2 (RIPK2). Type of assay: functional. Conditions: Homo sapiens.
For assay [8], the target named is T2, Sphingosine 1-phosphate receptor 4 (Homo sapiens, UniProt O95977).
T2 sequence (O95977 whole entry): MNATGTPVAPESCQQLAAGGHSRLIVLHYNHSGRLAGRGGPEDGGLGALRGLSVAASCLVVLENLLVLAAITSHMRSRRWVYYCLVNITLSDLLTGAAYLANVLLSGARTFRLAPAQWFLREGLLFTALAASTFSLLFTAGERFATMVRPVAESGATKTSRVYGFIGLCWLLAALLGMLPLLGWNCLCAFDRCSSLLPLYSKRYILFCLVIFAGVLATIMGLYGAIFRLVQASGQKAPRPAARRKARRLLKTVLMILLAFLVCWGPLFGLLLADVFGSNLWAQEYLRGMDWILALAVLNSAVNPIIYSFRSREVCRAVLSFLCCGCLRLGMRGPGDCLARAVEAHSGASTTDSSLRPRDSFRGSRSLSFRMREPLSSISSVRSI
Description: Fluorescence dose response cell-based high throughput screening assay for antagonists of the Sphingosine 1-Phosphate Receptor 4 (S1P4). [Related pubchem assays: 1524 (Confirmation in triplicates.), 1510 (Primary screen.)]. Type of assay: functional.

In assay [9] the target is T3, Voltage-gated N-type calcium channel alpha-1B subunit/Amyloid beta A4 precursor protein-binding family A member 1 (Homo sapiens, UniProt Q00975+Q02410). The format is protein assay.
T3 sequence (Q00975 whole entry): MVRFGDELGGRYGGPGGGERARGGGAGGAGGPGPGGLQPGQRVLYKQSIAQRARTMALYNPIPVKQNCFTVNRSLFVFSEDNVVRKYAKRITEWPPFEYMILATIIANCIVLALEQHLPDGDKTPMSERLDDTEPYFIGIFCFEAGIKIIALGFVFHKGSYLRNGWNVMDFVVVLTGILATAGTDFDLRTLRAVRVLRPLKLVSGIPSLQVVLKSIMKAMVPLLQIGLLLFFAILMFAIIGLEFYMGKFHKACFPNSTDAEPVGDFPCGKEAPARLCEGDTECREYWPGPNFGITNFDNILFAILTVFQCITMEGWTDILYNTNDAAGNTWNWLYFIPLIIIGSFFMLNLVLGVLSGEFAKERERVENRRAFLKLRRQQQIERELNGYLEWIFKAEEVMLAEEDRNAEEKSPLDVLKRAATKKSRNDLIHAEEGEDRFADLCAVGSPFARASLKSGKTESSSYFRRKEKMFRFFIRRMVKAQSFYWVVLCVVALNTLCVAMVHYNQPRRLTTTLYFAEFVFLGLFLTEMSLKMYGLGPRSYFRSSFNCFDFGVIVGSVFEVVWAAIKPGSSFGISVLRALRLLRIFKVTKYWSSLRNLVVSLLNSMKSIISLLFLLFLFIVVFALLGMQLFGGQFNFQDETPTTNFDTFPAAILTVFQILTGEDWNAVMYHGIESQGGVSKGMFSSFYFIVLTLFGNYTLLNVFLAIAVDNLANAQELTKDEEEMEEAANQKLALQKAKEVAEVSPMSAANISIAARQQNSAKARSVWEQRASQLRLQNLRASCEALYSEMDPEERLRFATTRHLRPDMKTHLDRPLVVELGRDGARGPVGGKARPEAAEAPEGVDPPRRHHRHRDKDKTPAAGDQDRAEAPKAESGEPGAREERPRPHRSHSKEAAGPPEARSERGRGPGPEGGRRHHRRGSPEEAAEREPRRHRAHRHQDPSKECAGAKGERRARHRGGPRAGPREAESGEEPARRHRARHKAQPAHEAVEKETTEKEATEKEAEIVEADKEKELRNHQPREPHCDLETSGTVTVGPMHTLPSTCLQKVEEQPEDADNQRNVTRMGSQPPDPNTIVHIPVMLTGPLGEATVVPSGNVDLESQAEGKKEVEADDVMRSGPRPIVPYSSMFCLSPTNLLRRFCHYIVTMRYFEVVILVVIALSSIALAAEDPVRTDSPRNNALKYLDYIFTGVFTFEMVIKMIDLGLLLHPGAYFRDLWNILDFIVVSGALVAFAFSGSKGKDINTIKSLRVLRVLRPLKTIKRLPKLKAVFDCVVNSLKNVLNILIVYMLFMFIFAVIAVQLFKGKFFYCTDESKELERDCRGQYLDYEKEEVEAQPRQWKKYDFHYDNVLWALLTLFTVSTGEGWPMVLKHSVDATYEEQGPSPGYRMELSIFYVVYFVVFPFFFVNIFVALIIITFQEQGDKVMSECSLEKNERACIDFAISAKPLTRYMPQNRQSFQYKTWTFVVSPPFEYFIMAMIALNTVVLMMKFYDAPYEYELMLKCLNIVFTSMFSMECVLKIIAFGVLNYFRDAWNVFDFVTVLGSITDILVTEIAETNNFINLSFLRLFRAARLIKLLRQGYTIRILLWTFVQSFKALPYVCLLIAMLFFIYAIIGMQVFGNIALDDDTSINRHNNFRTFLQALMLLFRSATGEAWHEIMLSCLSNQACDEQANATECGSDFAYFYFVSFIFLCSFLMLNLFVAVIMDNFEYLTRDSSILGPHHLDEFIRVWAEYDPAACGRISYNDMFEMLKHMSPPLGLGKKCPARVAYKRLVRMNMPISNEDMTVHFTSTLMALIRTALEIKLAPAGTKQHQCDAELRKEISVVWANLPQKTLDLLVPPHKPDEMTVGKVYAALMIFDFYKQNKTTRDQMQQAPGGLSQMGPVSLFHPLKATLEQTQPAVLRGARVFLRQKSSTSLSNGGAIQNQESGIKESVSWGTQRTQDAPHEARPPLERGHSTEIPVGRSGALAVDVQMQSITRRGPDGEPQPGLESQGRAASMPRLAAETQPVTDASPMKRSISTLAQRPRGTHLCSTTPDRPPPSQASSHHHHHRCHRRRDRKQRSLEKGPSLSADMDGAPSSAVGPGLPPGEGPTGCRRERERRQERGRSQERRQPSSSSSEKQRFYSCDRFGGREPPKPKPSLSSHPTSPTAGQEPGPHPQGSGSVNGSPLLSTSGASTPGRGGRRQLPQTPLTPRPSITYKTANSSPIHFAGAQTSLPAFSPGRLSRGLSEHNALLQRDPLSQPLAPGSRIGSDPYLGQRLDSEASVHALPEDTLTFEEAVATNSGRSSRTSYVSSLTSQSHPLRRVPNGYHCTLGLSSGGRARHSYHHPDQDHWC
T3 sequence (Q02410 whole entry): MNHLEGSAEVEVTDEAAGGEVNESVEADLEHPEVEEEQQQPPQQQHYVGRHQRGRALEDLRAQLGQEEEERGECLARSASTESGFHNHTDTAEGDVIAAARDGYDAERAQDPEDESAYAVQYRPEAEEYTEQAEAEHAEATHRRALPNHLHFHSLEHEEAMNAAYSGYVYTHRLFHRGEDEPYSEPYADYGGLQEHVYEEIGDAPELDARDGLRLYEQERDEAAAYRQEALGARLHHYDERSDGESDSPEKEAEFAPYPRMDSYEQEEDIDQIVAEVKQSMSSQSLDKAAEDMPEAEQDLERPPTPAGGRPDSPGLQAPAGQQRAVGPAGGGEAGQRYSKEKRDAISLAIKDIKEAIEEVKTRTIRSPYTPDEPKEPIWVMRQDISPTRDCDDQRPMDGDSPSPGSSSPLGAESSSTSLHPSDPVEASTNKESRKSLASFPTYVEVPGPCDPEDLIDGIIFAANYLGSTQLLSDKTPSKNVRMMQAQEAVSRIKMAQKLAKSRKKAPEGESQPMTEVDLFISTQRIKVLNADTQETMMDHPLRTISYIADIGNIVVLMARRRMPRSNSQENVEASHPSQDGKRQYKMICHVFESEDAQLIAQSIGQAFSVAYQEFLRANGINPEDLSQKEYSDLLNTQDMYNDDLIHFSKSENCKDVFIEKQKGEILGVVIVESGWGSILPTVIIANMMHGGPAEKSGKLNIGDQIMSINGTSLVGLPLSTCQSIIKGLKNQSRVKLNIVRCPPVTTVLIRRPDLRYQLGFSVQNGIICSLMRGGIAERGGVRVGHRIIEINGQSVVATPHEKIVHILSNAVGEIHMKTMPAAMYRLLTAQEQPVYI
In assay [10] the target is Sphingosine 1-phosphate receptor 1 (Homo sapiens, UniProt P21453). The format is functional.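 Note: Tango beta-arrestin reporter U2OS cells stimulated with S1P near its EC80; inhibitor potency meaning antagonism of receptor activation by the natural agonist.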
Sequence of Sphingosine 1-phosphate receptor 1 (P21453 whole entry): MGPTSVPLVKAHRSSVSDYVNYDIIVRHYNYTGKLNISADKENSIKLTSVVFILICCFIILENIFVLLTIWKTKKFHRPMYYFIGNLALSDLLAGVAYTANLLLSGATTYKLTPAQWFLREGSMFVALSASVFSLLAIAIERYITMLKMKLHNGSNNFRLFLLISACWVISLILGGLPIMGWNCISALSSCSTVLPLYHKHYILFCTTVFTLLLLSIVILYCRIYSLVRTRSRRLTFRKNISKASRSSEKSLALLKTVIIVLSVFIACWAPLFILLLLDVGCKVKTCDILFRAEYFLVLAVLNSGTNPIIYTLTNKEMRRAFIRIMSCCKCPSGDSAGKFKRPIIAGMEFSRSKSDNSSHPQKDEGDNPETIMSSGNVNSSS
The target of assay [11] is T1, Orexin/Hypocretin receptor type 1. The assay can be described thus: Homogeneous Time Resolved Fluorescence (HTRF)-based cell-based high throughput dose response assay for antagonists of the orexin 1 receptor (OX1R; HCRTR1). [Related pubchem assays (depositor defined):AID434989, AID435008, AID463079, AID485270, AID492963, AID492964, AID492965, AID493232, AID504717, AID504718]. Type of assay: functional. On the technique in general: In TR-FRET formats the signal depends on donor and acceptor labels being close together.

Assay [12] has as its target T3, Voltage-gated N-type calcium channel alpha-1B subunit/Amyloid beta A4 precursor protein-binding family A member 1. Type of assay: protein assay. This is another data set of the same source.
Assay [13] has as its system CHO-K1. The assay can be described thus: Counterscreen for antagonists of the orexin 1 receptor (OX1R; HCRTR1): Homogeneous time resolved fluorescence (HTRF)-based cell-based dose response assay to identify antagonists of the parental CHO-K1 cell line. [Related pubchem assays (depositor defined):AID434989, AID435008, AID463079, AID485270, AID492963, AID492964, AID492965, AID493232, AID504699, AID504701]. Type of assay: functional. Conditions: Cricetulus griseus.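 Note: potency for inhibition of ATP-stimulated IP1 production as antagonists.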

For assay [14], the target named is T4, Coagulation factor XII (Homo sapiens, UniProt P00748).
T4 sequence (P00748 whole entry): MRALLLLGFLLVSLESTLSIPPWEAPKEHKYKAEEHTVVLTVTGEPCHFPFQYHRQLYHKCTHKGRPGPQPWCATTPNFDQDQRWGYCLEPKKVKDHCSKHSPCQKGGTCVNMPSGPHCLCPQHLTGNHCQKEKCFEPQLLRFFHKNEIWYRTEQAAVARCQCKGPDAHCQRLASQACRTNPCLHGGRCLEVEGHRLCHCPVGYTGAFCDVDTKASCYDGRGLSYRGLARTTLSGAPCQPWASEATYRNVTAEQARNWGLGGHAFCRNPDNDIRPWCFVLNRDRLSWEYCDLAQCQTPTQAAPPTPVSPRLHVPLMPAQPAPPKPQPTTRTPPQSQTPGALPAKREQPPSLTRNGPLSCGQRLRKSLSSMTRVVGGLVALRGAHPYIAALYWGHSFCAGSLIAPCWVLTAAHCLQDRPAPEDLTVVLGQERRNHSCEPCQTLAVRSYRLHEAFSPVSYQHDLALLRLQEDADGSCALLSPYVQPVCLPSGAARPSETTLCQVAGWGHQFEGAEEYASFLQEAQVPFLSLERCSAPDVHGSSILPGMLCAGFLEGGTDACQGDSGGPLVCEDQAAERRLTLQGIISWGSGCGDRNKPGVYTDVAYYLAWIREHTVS
Description: activated coagulation factor XII inhibitor potency, concentration-effect curve, cell-free (AID 716). The format is functional.

Assay [15] deals with CAAX prenyl protease 2 (Saccharomyces cerevisiae S288c, UniProt Q03530). Type of assay: biochemical.
Sequence of CAAX prenyl protease 2 (Saccharomyces cerevisiae S288c, UniProt Q03530) (Q03530 whole entry): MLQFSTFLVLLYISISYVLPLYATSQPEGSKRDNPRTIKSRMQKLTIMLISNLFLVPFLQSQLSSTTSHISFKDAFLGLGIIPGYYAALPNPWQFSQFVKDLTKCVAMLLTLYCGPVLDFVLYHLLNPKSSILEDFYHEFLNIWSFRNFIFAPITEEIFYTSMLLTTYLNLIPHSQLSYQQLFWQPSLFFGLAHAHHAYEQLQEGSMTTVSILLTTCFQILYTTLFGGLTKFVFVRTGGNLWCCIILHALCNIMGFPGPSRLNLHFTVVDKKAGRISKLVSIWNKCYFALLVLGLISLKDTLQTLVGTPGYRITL
Assay [16] addresses CAAX prenyl protease 2 (Homo sapiens, UniProt Q9Y256). Description: inhibition of Ras-converting CAAX protease Rce1 – biochemical, yeast membranes, quenched-peptide fluorescence, cherry-pick, dose response (AID 588849).
Assay [17] addresses Trypsin (Sus scrofa, UniProt P00761). The assay can be described thus: trypsin protease activity blockade – biochemical, quenched peptide fluorescence, cherry-pick, selectivity assay for Rce1 protease inhibitor project, dose response (AID 488789).

Sequence of Trypsin (P00761 whole entry): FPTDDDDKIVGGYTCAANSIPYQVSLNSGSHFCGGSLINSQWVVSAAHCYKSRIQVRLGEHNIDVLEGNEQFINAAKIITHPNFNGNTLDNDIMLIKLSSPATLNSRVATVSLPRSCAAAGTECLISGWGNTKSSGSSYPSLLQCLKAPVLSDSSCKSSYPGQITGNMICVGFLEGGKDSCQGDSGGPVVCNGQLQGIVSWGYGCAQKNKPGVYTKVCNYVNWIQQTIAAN

For `O=C1C=C(c2ccc(Cl)cc2)C(=O)N1Nc1ccccc1`, the IC50 in [1] is 13 µM (inactive); in [2], 3.12 µM (active); in assay [4], 4.98 µM (active); in assay [7] it was 1.03 µM (active); in [8] it was 1.95 µM (active); in assay [9] it was > 50 µM (inactive). Further, the IC50 in assay [10] is 13.6 µM (not active); in assay [11] it was 3.73 µM (active); in [12], 21.1 µM (active); in assay [13], 50.7 µM (inactive). In addition, the EC50 in [3] is > 112 µM (not active); in [5], 21.5 µM (active). Besides, in assay [6], the AC50 is 0.267 µM (active).

On to `CC(C)NC(=O)CCCc1cn(C)c2ccccc12`, for which the IC50 in assay [14] was > 50 µM (inactive).

As for `CC1(C(=O)N(CC(=O)NC2CCCC2)Cc2ccccc2)CC(=O)N=C2C=CC=CN21` (configuration not stated), the results for the AC50 in assay [15], in assay [16] and in assay [17] were 4.24 µM (active), 2.75 µM (active) and 4.57 µM (active), respectively.
